For orientation: Dmax means the greatest extent of degradation seen. In general, DC50 refers to the concentration at which degradation of the target reaches its halfway point.

The source of these data is US20250170248A1, “SMARCA DEGRADERS AND USES THEREOF” (Kymera Therapeutics, Inc., priority 2021, published 2025).

The structures appear in SMILES notation.

Common to all, as to format: cell-based
The target in test [1] is T1, SMARCA2 (Homo sapiens, UniProt P51531). Put plainly: SMARCA2 Western blot degradation in MV4-11 cells. The arrangement: SMARCA2/SMARCA4 protein degradation selectivity in MV4-11 cells; endogenous in cells; host or cells: MV4-11. To be noted: for Dmax: MV4-11, MV4-11 cells, read-out: SMARCA2 MSD MV411 degradation 24 h: average Dmax %; for DC50: read-out: SMARCA2 MSD MV411 degradation 24 h: Mean external-Abs DC50; for Selectivity in MV411: SMARCA2/4 selectivity. (In western blotting, separated proteins are transferred to a membrane and probed.)
T1 sequence (P51531 whole entry): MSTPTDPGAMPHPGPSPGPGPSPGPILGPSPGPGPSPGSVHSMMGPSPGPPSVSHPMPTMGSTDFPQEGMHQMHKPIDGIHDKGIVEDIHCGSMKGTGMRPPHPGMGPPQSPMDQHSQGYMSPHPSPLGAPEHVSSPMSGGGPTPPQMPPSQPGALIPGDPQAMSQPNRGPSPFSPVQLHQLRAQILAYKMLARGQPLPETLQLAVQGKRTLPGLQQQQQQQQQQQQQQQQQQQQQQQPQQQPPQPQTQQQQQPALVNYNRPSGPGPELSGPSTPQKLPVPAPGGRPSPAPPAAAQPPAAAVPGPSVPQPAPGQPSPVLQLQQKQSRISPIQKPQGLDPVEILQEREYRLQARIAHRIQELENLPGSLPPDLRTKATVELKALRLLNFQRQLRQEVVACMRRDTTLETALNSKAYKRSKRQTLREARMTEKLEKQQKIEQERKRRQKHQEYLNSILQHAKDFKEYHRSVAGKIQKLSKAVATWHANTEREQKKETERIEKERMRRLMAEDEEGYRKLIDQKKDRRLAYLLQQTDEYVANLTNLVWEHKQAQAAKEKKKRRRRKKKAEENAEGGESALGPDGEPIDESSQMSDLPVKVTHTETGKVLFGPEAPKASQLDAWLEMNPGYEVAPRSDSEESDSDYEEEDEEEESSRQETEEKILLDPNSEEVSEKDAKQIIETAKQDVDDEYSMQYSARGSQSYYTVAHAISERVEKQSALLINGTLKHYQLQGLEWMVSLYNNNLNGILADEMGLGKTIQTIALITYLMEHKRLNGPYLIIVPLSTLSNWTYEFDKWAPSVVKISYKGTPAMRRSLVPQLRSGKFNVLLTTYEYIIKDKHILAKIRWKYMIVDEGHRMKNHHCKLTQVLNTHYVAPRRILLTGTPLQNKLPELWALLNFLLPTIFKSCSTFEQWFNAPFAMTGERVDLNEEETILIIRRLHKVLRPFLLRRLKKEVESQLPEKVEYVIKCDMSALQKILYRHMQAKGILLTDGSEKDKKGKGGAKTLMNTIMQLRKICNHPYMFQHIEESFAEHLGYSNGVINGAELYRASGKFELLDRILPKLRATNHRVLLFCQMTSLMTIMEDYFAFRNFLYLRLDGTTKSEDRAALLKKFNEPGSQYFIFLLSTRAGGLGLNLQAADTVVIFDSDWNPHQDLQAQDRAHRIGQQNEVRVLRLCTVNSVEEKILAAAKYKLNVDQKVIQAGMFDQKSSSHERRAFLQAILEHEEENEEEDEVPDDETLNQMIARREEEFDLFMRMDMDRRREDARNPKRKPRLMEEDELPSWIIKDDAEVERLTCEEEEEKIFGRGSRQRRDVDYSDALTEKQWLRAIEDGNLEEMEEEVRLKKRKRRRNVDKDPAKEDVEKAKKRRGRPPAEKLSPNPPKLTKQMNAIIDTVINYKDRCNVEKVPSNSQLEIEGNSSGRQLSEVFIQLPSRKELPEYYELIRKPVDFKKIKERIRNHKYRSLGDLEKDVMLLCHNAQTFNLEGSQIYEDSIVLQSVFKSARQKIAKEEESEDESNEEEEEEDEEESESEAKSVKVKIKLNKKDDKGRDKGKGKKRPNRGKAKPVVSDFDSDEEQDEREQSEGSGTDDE

The target in the next test is T2, SMARCA4 (Homo sapiens, UniProt P51532).
T2 construct: SMARCA2/SMARCA4 protein degradation selectivity in MV4-11 cells; endogenous in cells; host or cells: MV4-11
T2 sequence (P51532 whole entry): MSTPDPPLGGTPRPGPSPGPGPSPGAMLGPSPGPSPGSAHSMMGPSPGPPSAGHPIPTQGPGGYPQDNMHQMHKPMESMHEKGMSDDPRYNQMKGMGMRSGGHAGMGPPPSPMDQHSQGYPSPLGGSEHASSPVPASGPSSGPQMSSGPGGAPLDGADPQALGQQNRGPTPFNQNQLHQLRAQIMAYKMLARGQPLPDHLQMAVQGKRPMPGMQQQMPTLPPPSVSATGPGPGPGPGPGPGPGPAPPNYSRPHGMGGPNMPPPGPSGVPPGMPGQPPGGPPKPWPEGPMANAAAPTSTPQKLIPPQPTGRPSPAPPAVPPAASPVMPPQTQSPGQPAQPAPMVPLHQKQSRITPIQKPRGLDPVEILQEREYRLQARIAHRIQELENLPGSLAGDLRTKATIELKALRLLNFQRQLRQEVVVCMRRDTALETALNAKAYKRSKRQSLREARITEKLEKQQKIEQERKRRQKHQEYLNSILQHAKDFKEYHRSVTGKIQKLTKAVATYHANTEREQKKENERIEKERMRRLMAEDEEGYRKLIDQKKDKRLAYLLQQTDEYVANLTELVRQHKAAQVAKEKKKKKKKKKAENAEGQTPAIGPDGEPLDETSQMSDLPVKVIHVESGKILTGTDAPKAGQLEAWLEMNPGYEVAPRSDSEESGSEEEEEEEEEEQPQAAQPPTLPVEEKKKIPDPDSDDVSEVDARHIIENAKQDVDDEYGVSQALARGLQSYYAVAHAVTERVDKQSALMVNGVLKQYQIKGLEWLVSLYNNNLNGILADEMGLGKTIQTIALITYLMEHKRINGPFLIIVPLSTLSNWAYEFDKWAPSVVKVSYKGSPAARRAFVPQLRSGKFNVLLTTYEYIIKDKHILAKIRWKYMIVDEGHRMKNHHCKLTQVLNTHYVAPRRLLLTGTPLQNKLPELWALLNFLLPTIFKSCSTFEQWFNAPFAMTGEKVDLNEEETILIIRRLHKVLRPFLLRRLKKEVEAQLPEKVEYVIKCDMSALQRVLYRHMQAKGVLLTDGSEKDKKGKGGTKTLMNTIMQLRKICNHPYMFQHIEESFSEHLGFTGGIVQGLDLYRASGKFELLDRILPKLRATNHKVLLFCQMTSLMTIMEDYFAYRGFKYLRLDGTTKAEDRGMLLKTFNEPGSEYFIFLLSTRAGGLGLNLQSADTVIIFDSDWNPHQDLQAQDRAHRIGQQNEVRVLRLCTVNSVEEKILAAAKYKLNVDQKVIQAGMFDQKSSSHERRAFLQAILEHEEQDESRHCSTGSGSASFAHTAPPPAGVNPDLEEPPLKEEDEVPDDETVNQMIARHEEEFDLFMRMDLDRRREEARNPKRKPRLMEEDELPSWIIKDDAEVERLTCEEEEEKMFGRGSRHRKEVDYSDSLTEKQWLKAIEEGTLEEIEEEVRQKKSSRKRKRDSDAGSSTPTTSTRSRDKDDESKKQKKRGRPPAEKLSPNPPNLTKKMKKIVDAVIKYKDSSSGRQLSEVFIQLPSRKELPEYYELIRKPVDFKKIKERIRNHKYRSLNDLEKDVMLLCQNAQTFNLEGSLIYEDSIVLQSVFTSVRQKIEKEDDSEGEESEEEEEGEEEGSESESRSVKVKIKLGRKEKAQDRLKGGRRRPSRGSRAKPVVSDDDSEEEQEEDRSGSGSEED
Put plainly: SMARCA4 Western blot degradation in MV4-11 cells. To be noted: for Dmax: MV4-11, MV4-11 cells, read-out: SMARCA4 MSD MV411 degradation 24 h: average Dmax %; for Dmax / DC50: 24 h; for DC50: read-out: SMARCA4 MSD MV411 degradation 24 h: Mean external-Abs DC50. The method, boiled down: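 Protein levels quantified by LI-COR Western blot (beta-actin loading control) in RIPA lysates of MV4-11 cells after 24 h compound exposure. Degradation reported as DC50, Dmax % at 24 h and SMARCA2 vs SMARCA4 selectivity, each binned into letter codes.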

For test [2], the target named is T1, SMARCA2. Put plainly: MSD SMARCA2 degradation in A549 cell line. The note with it: for Dmax: A549, A549 cells; for Dmax / DC50: 24 h; for DC50: read-out: SMARCA2 MSD A549 degradation 24 h: Average external-Abs DC50. In short, it runs like this: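 SMARCA2 protein remaining after 24 h exposure of A549 cells (top concentration 1000 nM, 3-fold dilutions) was measured by MSD electrochemiluminescence immunoassay of cell lysates. Results are given as binned DC50 and maximal degradation (Dmax) codes.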

For `C#Cc1ccc(CNC(=O)[C@@H]2C[C@@H](O)CN2C(=O)[C@@H](NC(=O)CN2CC3(CC(N4CCC(N5CCC(N6CCN7c8cc(-c9ccccc9O)nnc8NC[C@H]7C6)CC5)CC4)C3)C2)C(C)(C)C)cc1` [I-214, (2S,4R)—N-(4-ethynylbenzyl)-4-hydroxy-1-((S)-2-(2-(6-(4-((S)-2-(2-hydroxyphenyl)-6a,7,9,10-tetrahydro-5H-pyrazino[1′,2′:4,5]pyrazino[2,3-c]pyridazin-8(6H)-yl)-[1,4′-bipiperidin]-1′-yl)-2-azaspiro[3.3]heptan-2-yl)acetamido)-3,3-dimethylbutanoyl)pyrrolidine-2-carboxamide], the Dmax at SMARCA2 [1] (24 h) was 70 to 90%; at SMARCA4, below 50%; on SMARCA2 [2], above 90%. In addition, the DC50 on SMARCA2 [1] (MV4-11 cells, 24 h) is 10 to 100 nM; on SMARCA4 (MV4-11 cells), above 100 nM; at SMARCA2 [2] (A549 cells), above 100 nM. Moreover, the “Selectivity in MV411” value on SMARCA2 [1] (MV4-11 cells) is “B (B (>100-500 fold))”.

For the molecule `C#Cc1ccc(CNC(=O)[C@@H]2C[C@@H](O)CN2C(=O)[C@@H](NC(=O)N2CCC[C@@H](CN3CCC(N4CCC(N5CCN6c7cc(-c8ccccc8O)nnc7NC[C@H]6C5)CC4)CC3)C2)C(C)(C)C)cc1` (single isomer, unassigned) [I-253], the Dmax at SMARCA2 [1] (24 h), on SMARCA4 and at SMARCA2 [2] was below 50% each time. For the same molecule, the half-maximal degradation concentration (DC50) on SMARCA2 [1] (MV4-11 cells, 24 h) is above 100 nM; on SMARCA4 (MV4-11 cells), above 100 nM; on SMARCA2 [2] (A549 cells), above 100 nM. The “Selectivity in MV411” value on SMARCA2 [1] (MV4-11 cells) is “D (D (<10 fold))”.

For `C#Cc1ccc(CNC(=O)[C@@H]2C[C@@H](O)CN2C(=O)[C@@H](NC(=O)[C@H]2CC3(C2)C[C@H](N2CCN(C(=O)CN4CCN5c6cc(-c7ccccc7O)nnc6NC[C@H]5C4)CC2)C3)C(C)(C)C)cc1` (single isomer, unassigned) [I-239], the Dmax at SMARCA2 [1] (24 h), on SMARCA4 and on SMARCA2 [2] was above 90% each time. In addition, the DC50 at SMARCA2 [1] (MV4-11 cells, 24 h) was 1 to 10 nM; on SMARCA4 (MV4-11 cells), 10 to 100 nM; at SMARCA2 [2] (A549 cells), above 100 nM. For the same molecule, the “Selectivity in MV411” value at SMARCA2 [1] (MV4-11 cells) was “D (D (<10 fold))”.

For the molecule `C#Cc1ccc(CNC(=O)[C@@H]2C[C@@H](O)CN2C(=O)[C@@H](NC(=O)N2CC3(CC(N4CCC(c5cnc(N6CCc7[nH]c8nnc(-c9ccccc9O)cc8c7[C@H]6C)nc5)CC4)C3)C2)C(C)(C)C)cc1` (single isomer, unassigned) [I-73], the Dmax on SMARCA2 [1] (24 h) is above 90%; at SMARCA4, 70 to 90%; at SMARCA2 [2], above 90%. Besides, the DC50 at SMARCA2 [1] (MV4-11 cells, 24 h) was 1 to 10 nM; on SMARCA4 (MV4-11 cells) it was 10 to 100 nM; at SMARCA2 [2] (A549 cells), below 10 nM. The “Selectivity in MV411” value at SMARCA2 [1] (MV4-11 cells) is listed as “C (C (10-100 fold))”.

With `C#Cc1ccc(CNC(=O)[C@@H]2C[C@@H](O)CN2C(=O)[C@@H](NC(=O)[C@H]2CCC3(CC2)C[C@H](N2CCN(c4cnc(N5CCN6c7cc(-c8ccccc8O)nnc7NC[C@H]6C5)nc4)CC24CC4)C3)C(C)(C)C)cc1` (stereo partly drawn) [I-266], the values for the Dmax on SMARCA2 [1] (24 h), on SMARCA4 and on SMARCA2 [2] were above 90%, 50 to 70% and above 90%, respectively. Further, the DC50 was 10 to 100 nM on SMARCA2 [1] (MV4-11 cells, 24 h); above 100 nM on SMARCA4 (MV4-11 cells); 50 to 100 nM on SMARCA2 [2] (A549 cells). For the same molecule, at SMARCA2 [1] (MV4-11 cells), the “Selectivity in MV411” value is “C (C (10-100 fold))”.

As for `C#Cc1ccc(CNC(=O)[C@@H]2C[C@@H](O)CN2C(=O)[C@@H](NC(=O)[C@H]2CCC3(CC2)C[C@H](N2CCC(N4CCC(N5CCN6c7cc(-c8ccccc8O)nnc7NC[C@H]6C5)CC4)CC2)C3)C(C)(C)C)c(F)c1` (stereo partly drawn) [I-258], at SMARCA2 [1] (MV4-11 cells, 24 h), the “SMARCA2 MSD MV411 degradation 24 h: average Dmax %” value is listed as “C (C (50-70% degradation))” and the DC50 was in the range of 10 to 100 nM. Besides, the “Selectivity in MV411” value on SMARCA2 [1] (MV4-11 cells) is given as “C (C (10-100 fold))”. Besides, at SMARCA4 (MV4-11 cells), the “SMARCA4 MSD MV411 degradation 24 h: average Dmax %” value is “D (D (<50% degradation))” and the DC50 is above 100 nM. For the same molecule, at SMARCA2 [2] (A549 cells), the “SMARCA2 MSD A549 degradation 24 h: Average Dmax %” value is recorded as “B (B (>70-90% degradation))” and the DC50 is above 100 nM.
